Laboratory results from the CheMixHub ionic liquid set.

Assay: xn = mol fraction of the nth substance listed

CCCCCCCCCCCCCC[n+]1ccccc1.O=C([O-])C(O)c1ccccc1 + CC(C)[C@H](N)C(=O)O + O
electrical conductivity [S/m], 101 kPa
Conditions | 293.15 K | 298.15 K | 303.15 K | 308.15 K | 313.15 K
x1 = 6.19e-06, x2 = 0.001799 | 0.00217 | 0.00247 | 0.00278 | 0.00312 | 0.00346
x1 = 6.85e-06, x2 = 0 | 0.00248 | 0.00278 | 0.00309 | 0.0034 | 0.0037
x1 = 8.87e-06, x2 = 0.0009002 | 0.00274 | 0.00311 | 0.00349 | 0.00388 | 0.00427
x1 = 1.146e-05, x2 = 0.001799 | 0.00366 | 0.00413 | 0.00464 | 0.0052 | 0.0057
x1 = 1.424e-05, x2 = 0 | 0.00472 | 0.00529 | 0.00587 | 0.0065 | 0.0071
x1 = 1.485e-05, x2 = 0.0009002 | 0.00439 | 0.00496 | 0.00555 | 0.0061 | 0.0068
x1 = 1.674e-05, x2 = 0.001799 | 0.0051 | 0.00578 | 0.0065 | 0.0072 | 0.008
x1 = 1.847e-05, x2 = 0.0009002 | 0.00537 | 0.00606 | 0.0068 | 0.0075 | 0.0083
x1 = 2.126e-05, x2 = 0 | 0.00671 | 0.0076 | 0.0084 | 0.0093 | 0.0101
x1 = 2.202e-05, x2 = 0.001799 | 0.00655 | 0.0074 | 0.0083 | 0.0093 | 0.0102
x1 = 2.264e-05, x2 = 0.0009002 | 0.00641 | 0.0072 | 0.0081 | 0.009 | 0.0099
x1 = 2.693e-05, x2 = 0.001799 | 0.00788 | 0.0089 | 0.01 | 0.0111 | 0.0123
x1 = 2.698e-05, x2 = 0.0009002 | 0.00756 | 0.0086 | 0.0096 | 0.0106 | 0.0117
x1 = 2.811e-05, x2 = 0 | 0.0086 | 0.0097 | 0.0108 | 0.0122 | 0.0131
x1 = 3.187e-05, x2 = 0.0009002 | 0.0089 | 0.01 | 0.0113 | 0.0125 | 0.0138
x1 = 3.257e-05, x2 = 0.001799 | 0.0094 | 0.0106 | 0.0119 | 0.0132 | 0.0146
x1 = 3.46e-05, x2 = 0 | 0.0103 | 0.0116 | 0.0129 | 0.0145 | 0.0157
x1 = 3.876e-05, x2 = 0.001799 | 0.0107 | 0.0121 | 0.0136 | 0.0152 | 0.0169
x1 = 3.93e-05, x2 = 0.0009001 | 0.0105 | 0.0119 | 0.0133 | 0.0148 | 0.0164
x1 = 4.108e-05, x2 = 0 | 0.0117 | 0.0131 | 0.0146 | 0.0161 | 0.0179
x1 = 4.549e-05, x2 = 0.001799 | 0.0119 | 0.0134 | 0.0151 | 0.0169 | 0.0188
x1 = 4.618e-05, x2 = 0.0009001 | 0.0116 | 0.0131 | 0.0147 | 0.0165 | 0.0183
x1 = 4.811e-05, x2 = 0 | 0.0129 | 0.0144 | 0.0161 | 0.0179 | 0.0198
x1 = 5.295e-05, x2 = 0.001799 | 0.0129 | 0.0146 | 0.0164 | 0.0183 | 0.0203
x1 = 5.324e-05, x2 = 0.0009001 | 0.0126 | 0.0142 | 0.0159 | 0.0178 | 0.0198
x1 = 5.388e-05, x2 = 0 | 0.0137 | 0.0154 | 0.0172 | 0.0191 | 0.0211
x1 = 5.982e-05, x2 = 0 | 0.0145 | 0.0163 | 0.0182 | 0.0202 | 0.0224
x1 = 6.012e-05, x2 = 0.0009001 | 0.0134 | 0.015 | 0.017 | 0.0191 | 0.0212
x1 = 6.078e-05, x2 = 0.001799 | 0.014 | 0.0158 | 0.0177 | 0.0198 | 0.0221
x1 = 6.559e-05, x2 = 0 | 0.0153 | 0.0172 | 0.0192 | 0.0213 | 0.0236
x1 = 6.609e-05, x2 = 0.0009001 | 0.0142 | 0.016 | 0.018 | 0.0202 | 0.0224
x1 = 6.788e-05, x2 = 0.001799 | 0.015 | 0.0169 | 0.0189 | 0.0211 | 0.0236
x1 = 7.081e-05, x2 = 0 | 0.016 | 0.018 | 0.02 | 0.0223 | 0.0246
x1 = 7.153e-05, x2 = 0.0009001 | 0.0149 | 0.0168 | 0.0189 | 0.0212 | 0.0236
x1 = 7.424e-05, x2 = 0.001799 | 0.0158 | 0.0179 | 0.0201 | 0.0224 | 0.0249
x1 = 7.604e-05, x2 = 0 | 0.0167 | 0.0187 | 0.0209 | 0.0232 | 0.0258
x1 = 7.714e-05, x2 = 0.0009001 | 0.0156 | 0.0176 | 0.0198 | 0.0223 | 0.0248
x1 = 8.025e-05, x2 = 0.001799 | 0.0166 | 0.0188 | 0.0211 | 0.0236 | 0.0262
x1 = 8.072e-05, x2 = 0 | 0.0173 | 0.0194 | 0.0217 | 0.0241 | 0.0266
x1 = 8.257e-05, x2 = 0.0009001 | 0.0163 | 0.0185 | 0.0208 | – | –

Oc1cccc(O)c1O + CCC[N+](CCC)(CCC)CCC.[Br-]
101.3 kPa, x2 = 0.5
Conditions | electrical conductivity [S/m] | viscosity [mPa·s]
293.15 K | 0.00158 | 36500
298.15 K | 0.00309 | –
303.15 K | 0.00531 | 17000
308.15 K | 0.0126 | 11500
313.15 K | 0.0186 | 6800
333.15 K | 0.0967 | 850

CCO + C[N+](C)(C)CCC[n+]1ccccc1.N#C[N-]C#N.N#C[N-]C#N
100 kPa, x2 = 0
Conditions | viscosity [mPa·s]
293.15 K | 1.19
303.15 K | 0.991
313.15 K | 0.828
323.15 K | 0.705
333.15 K | 0.593

O=S(=O)([N-]S(=O)(=O)C(F)(F)F)C(F)(F)F.[Rb+] + O=S(=O)([N-]S(=O)(=O)C(F)(F)F)C(F)(F)F.[Li+]
100 kPa, x2 = 0.25
Conditions | viscosity [mPa·s]
452.5 K | 47.7
463 K | 36.9
483.1 K | 22.7
523.6 K | 10.2
531.9 K | 8.55

100 kPa, frequency 1 MHz, x2 = 0.25
Conditions | electrical conductivity [S/m]
512.5 K | 2.82
531.5 K | 3.59
